From PubChem BioAssay (NCI)
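Grown in 96-well plates, cells were treated for 48 hours with each compound at five concentrations. Insufficient inhibition: endpoint recorded as highest concentration tested. At the TGI there is no net growth.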

Legend:
Test in all cases: NCI tumour cell line growth inhibition, 48 h
[1] = system: 786-0 renal
[2] = system: A549 NSCLC
[3] = system: ACHN renal
[4] = system: CCRF-CEM leukemia
[5] = system: COLO 205 colon
[6] = system: DLD-1 colon
[7] = system: DMS 114 small cell lung
[8] = system: DMS 273 small cell lung
[9] = system: EKVX NSCLC
[10] = system: HCC-2998 colon
[11] = system: HCT-116 colon
[12] = system: HCT-15 colon
[13] = system: HL-60(TB) leukemia
[14] = system: HOP-18 NSCLC
[15] = system: HOP-62 NSCLC
[16] = system: HOP-92 NSCLC
[17] = system: HT29 colon
[18] = system: IGROV1 ovarian
[19] = system: K-562 leukemia
[20] = system: KM12 colon
[21] = system: KM20L2 colon
[22] = system: LOX IMVI melanoma
[23] = system: LXFL 529 NSCLC
[24] = system: M14 melanoma
[25] = system: M19-MEL melanoma
[26] = system: MALME-3M melanoma
[27] = system: MOLT-4 leukemia
[28] = system: NCI-H226 lung
[29] = system: NCI-H23 lung
[30] = system: NCI-H460 lung
[31] = system: NCI-H522 lung
[32] = system: OVCAR-3 ovarian
[33] = system: OVCAR-4 ovarian
[34] = system: OVCAR-5 ovarian
[35] = system: OVCAR-8 ovarian
[36] = system: RPMI-8226 leukemia
[37] = system: RXF 393 renal
[38] = system: RXF-631 renal
[39] = system: SF-268 CNS
[40] = system: SF-295 CNS
[41] = system: SF-539 CNS
[42] = system: SK-MEL-2 melanoma
[43] = system: SK-MEL-28 melanoma
[44] = system: SK-MEL-5 melanoma
[45] = system: SK-OV-3 ovarian
[46] = system: SN12C renal
[47] = system: SNB-19 CNS
[48] = system: SNB-75 CNS
[49] = system: SR leukemia
[50] = system: SW-620 colon
[51] = system: TK-10 renal
[52] = system: U251 CNS
[53] = system: UACC-257 melanoma
[54] = system: UACC-62 melanoma
[55] = system: UO-31 renal
[56] = system: XF 498 CNS
[57] = system: A498 renal
[58] = system: CAKI-1 renal
[59] = system: SNB-78 CNS

Measured: TGI

O=C(NCc1ccc2ccc3cccnc3c2n1)c1ccc[n+](Cc2ccccc2)c1
> 100 µM: [1] | [2] | [3] | [4] | [5] | [6] | [7] | [8] | [9] | [10] | [11] | [12] | [13] | [14] | [15] | [16] | [17] | [18] | [19] | [20] | [21] | [22] | [23] | [24] | [25] | [26] | [27] | [28] | [29] | [30] | [31] | [32] | [33] | [34] | [35] | [36] | [37] | [38] | [39] | [40] | [41] | [42] | [43] | [44] | [45] | [46] | [47] | [48] | [49] | [50] | [51] | [52] | [53] | [54] | [55] | [56]

CC(=O)NC1=C(N)C(=O)c2ccccc2C1=O
41 µM: [25]
28.1 µM: [7]
35 µM: [11]
40.6 µM: [30]
28.6 µM: [22]
80.6 µM: [5]
> 100 µM: [1] | [57] | [2] | [3] | [58] | [4] | [6] | [8] | [9] | [10] | [12] | [13] | [14] | [15] | [16] | [17] | [18] | [19] | [20] | [21] | [23] | [24] | [27] | [29] | [31] | [34] | [35] | [36] | [37] | [38] | [39] | [40] | [41] | [42] | [44] | [45] | [46] | [47] | [48] | [59] | [51] | [52] | [53] | [54] | [55] | [56]
29.2 µM: [50]
50.4 µM: [26]
61.9 µM: [32]

O=C(N/C(=C/c1cccc([N+](=O)[O-])c1)c1nc2ccc(Cl)cc2[nH]1)c1ccccc1
68.3 µM: [48]
99.5 µM: [29]
62.5 µM: [15]
90.5 µM: [33]
48.9 µM: [3]
45.4 µM: [21]
86.6 µM: [45]
25.3 µM: [9]
49 µM: [27]
20.2 µM: [13]
25.4 µM: [52]
27 µM: [18] | [38]
70.4 µM: [10]
66.2 µM: [57]
50.3 µM: [42]
62.1 µM: [7] | [51]
78.4 µM: [16]
69.7 µM: [36]
> 100 µM: [1] | [2] | [5] | [12] | [14] | [23] | [24] | [25] | [28] | [39] | [40] | [43] | [47] | [59] | [53]
46.9 µM: [19]
76.6 µM: [32]
12.5 µM: [41]
41.3 µM: [49]
39.1 µM: [31]
48 µM: [4]
22.8 µM: [50]
78.6 µM: [34]
33.5 µM: [54]
31.1 µM: [20]
50.9 µM: [17]
17.2 µM: [55]
30.6 µM: [35]
58.3 µM: [22]
12.7 µM: [44]
36.4 µM: [26]
39.9 µM: [37]
25.8 µM: [11]
87.4 µM: [46]
71.3 µM: [58]
51.7 µM: [30]
